Measured values reported in PMC8482806, “A Novel Blood-Brain Barrier-Permeable Chemotherapeutic Agent for the Treatment of Glioblastoma” (Cureus, 2021).

Columns and labels:
8MGBA cells = test: Cell viability assay (CellTiter-Glo), 8MGBA; assay type: cell-based; conditions: Homo sapiens, 8-MG-BA; Cell Line: 8MGBA; read-out: LC50 (μM ± SD)
Protocol: (§1) In vitro activity of QBS10072S was assessed using a modified clonogenic cell viability assay in 96-well clear-bottom plates. For the LLC-PK1 inducible LAT1-expressing cell line, 1000 cells/well were plated and cells were treated with either butyrate alone (non-induced) or with both butyrate and doxycycline (induced) as described above. For GBM cell lines, 2000 cells/well were plated. On day 2 (GBM) or day 3 (LLC-PK1) after original plating, cells were washed twice with PBS and incubated with 50 μL of various concentrations of QBS10072S in PBS in at least quadruplicate. After 30 minutes at 37°C, 200 μL of growth medium was added to each well. Clonal populations were allowed to grow until the control wells (mock treatment) were near confluence (7 to 10 days). At this point, 170 μL media were removed and 60 μL CellTiter-Glo® (Promega, Madison, WI) were added to each well. Plates were placed on an orbital shaker for three minutes to lyse the cells and then incubated for an additional 10 minutes at RT to stabilize the luminescent signal. Luminescence was recorded using an EnSpire® Multimode Plate Reader (Perkin Elmer). Background (luminescence from wells incubated with 100 μM melphalan or lomustine) was subtracted and data were normalized to the control. EC50s were determined by non-linear regression using GraphPad Prism.

AM38 cells = test: Cell viability assay (CellTiter-Glo), AM38; assay type: cell-based; conditions: Homo sapiens, AM-38; Cell Line: AM38; read-out: LC50 (μM ± SD)
Protocol: as §1

[1] = [14C]-QBS10072S distribution by quantitative whole-body autoradiography in mice with intracranial LN229 tumors; assay type: in vivo, mouse; conditions: 5 mg/kg IV
Protocol: Athymic mice with intracranial implanted LN229 cells received a single IV dose of 5 mg/kg and 200 μCi/kg [14C]-QBS10072S into the tail vein using the formulation described above. Animals (one per time point) were sacrificed one, eight, and 24 hours post-dose, and frozen in a hexane/solid carbon dioxide bath for at least 10 minutes. The carcasses were processed as described for quantitative whole-body autoradiography. Briefly, sagittal sections (~ 40 μm thick) were cut using a microtome, mounted, and exposed to a [14C]-sensitive phosphor imaging plate for four days. The images were scanned and quantitated by image densitometry using MCID image analysis software. The concentrations of radioactivity were expressed as the μg equivalents of test article per gram sample (μg equiv/g). The upper and lower limits of quantification were 550 and 0.008 μg equiv/g, respectively (QPS, Newark, DE).

[2] = tested on: U251 intracerebral human GBM xenograft; test: U251 intracerebral human GBM xenograft in athymic mice (BLI, survival); assay type: in vivo, mouse
Protocol: Five-week-old female athymic mice (nu/nu, homozygous: Simonsen Laboratories, Gilroy, CA), housed under aseptic conditions, received intracranial tumor cell injection as previously described and as approved by the University of California San Francisco Institutional Animal Care and Use Committee, Protocol #: AN111064-03. Briefly, mice were anesthetized by intraperitoneal injection of ketamine (100 mg/kg) and xylazine (10 mg/kg) and injected with 3 μL of tumor cell suspension (300,000 cells total) into the right caudate-putamen. Coordinates: 3 mm to the right from bregma, on top of the coronal suture, and 3.5 mm depth. Injection rate: ~30 second/uL. For treatment studies, eight mice were used for each group for LN229 studies and nine mice per group for U251 studies. Treatments began when tumors entered the log-phase of growth as measured by luminescence, for the LN229 experiment on Day 21 and for U251 experiments on Day 14.
Dosing levels and frequency are described in the figure legends.
For bioluminescence imaging (BLI), mice were anesthetized as above, then administered 150 mg/kg of luciferin (D-luciferin potassium salt, Gold Biotechnology, St. Louis, MO) via intraperitoneal injection. Ten minutes after luciferin injection, mice were examined for tumor bioluminescence with an IVIS Lumina imaging station and Living Image software (Caliper Life Sciences, Alameda, CA), and regions of interest were recorded as photons per second per steradian per square cm.
Mice were anesthetized via inhalation of 2.5% isoflurane with 1 L of oxygen per minute for five minutes prior to being positioned on an irradiation platform located 16.3 cm from a cesium-137 source (JL Shepherd & Associates, San Fernando, CA). Eyes, respiratory tracts, and bodies were protected with lead shielding. Mice received whole-brain irradiation at a dose rate of 247 cGy/min until 1.5 Gy radiation had been administered. After irradiation, animals were monitored until recovery. Mice were irradiated once daily for five consecutive days. All mice received the first radiation dose when tumors were in a log-phase growth (Day 14) as determined by BLI.
Tumor-bearing mice were treated with temozolomide (TMZ) 4 mg/kg via oral gavage, starting on day 14 post U251 cell injection once daily for five days - concurrent therapy with RT. TMZ was obtained from the UCSF hospital pharmacy and formulated with the Ora-Plus suspending vehicle (Perrigo, Dublin, Ireland) with a working concentration of 1 mg/mL.

[3] = Microscopic evaluation of brain tissue after dosing rodents; assay type: in vivo; conditions: rodents dosed with high levels

Cc1ccc(N(CCCl)CCCl)cc1C[C@H](N)CC(=O)O [QBS10072S, (+)-(3S)-amino-4-[5-[bis(2-chloroethyl)amino]-2-methyl-phenyl]butanoic acid]
CC50 (8MGBA cells): 34 ± 20 µM
CC50 (AM38 cells): 14 ± 4 µM
level in brain tumor as % of blood levels ([1]; 1 hour post-dose): 89%
level in brain tumor as % of blood levels ([1]; 8 hours post-dose): 73%
level in brain tumor as % of blood levels ([1]; 24 hours post-dose): 37%
body weight loss over the course of the study ([2]; 10 mg/kg IV once a week for six weeks): no significant body weight loss
median survival time ([2]; 10 mg/kg IV once a week for six weeks, vehicle 37): 70 days
median survival time ([2]; QBS10072S 10 mg/kg once a week for 4 weeks + RT 1.5 Gy daily for 5 days, vehicle 35): 64 days
median survival time ([2]; QBS10072S alone, 10 mg/kg once a week for 4 weeks, vehicle 35): 45 days
tumor growth inhibition (TGI) vs. vehicle ([2]; day 35, 10 mg/kg IV once a week for six weeks): 95%
%TGI ([2]; day 35, QBS10072S alone, 10 mg/kg once a week for 4 weeks): 86%
%TGI ([2]; day 35, combination of QBS10072S 10 mg/kg once a week for 4 weeks and RT 1.5 Gy once daily for 5 days): 96%
alterations of the BBB, microscopic evaluation of brain tissue [3]: no alterations of the BBB
